Activity calls are given as the source filed them.
Assays:
[1] = target: T1, Heat shock factor protein 1 (Mus musculus, UniProt P38532); assay: HSF1 potentiators in luciferase reporter cells, confirmation, cell-based, NIH3T3, luminescence, dose retest (AID 435004); type: functional;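 note: stress induced by proteasome inhibitor MG132 added 30 min after compound; luciferase reporter driven by HSF1 response element in NIH3T3 cells; actives raise luminescence as potentiators of the MG132 stress response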
T1 sequence (P38532 whole entry): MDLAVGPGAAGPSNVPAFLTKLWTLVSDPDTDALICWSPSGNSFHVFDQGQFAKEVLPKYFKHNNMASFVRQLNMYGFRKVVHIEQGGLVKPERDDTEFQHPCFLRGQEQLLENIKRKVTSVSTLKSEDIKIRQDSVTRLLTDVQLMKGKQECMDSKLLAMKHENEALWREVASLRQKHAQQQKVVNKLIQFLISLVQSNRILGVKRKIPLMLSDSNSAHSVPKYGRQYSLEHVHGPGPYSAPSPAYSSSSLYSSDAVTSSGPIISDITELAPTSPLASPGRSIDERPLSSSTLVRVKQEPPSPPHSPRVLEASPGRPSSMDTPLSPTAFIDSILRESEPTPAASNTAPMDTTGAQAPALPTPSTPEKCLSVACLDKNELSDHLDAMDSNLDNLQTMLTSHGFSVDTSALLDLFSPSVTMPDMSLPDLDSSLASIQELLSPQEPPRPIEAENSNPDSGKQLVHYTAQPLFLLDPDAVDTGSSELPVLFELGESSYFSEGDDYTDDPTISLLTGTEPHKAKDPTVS

Cytochrome P450 2C9 = Cytochrome P450 2C9 (Homo sapiens, UniProt P11712)
Sequence of Cytochrome P450 2C9 (P11712 whole entry): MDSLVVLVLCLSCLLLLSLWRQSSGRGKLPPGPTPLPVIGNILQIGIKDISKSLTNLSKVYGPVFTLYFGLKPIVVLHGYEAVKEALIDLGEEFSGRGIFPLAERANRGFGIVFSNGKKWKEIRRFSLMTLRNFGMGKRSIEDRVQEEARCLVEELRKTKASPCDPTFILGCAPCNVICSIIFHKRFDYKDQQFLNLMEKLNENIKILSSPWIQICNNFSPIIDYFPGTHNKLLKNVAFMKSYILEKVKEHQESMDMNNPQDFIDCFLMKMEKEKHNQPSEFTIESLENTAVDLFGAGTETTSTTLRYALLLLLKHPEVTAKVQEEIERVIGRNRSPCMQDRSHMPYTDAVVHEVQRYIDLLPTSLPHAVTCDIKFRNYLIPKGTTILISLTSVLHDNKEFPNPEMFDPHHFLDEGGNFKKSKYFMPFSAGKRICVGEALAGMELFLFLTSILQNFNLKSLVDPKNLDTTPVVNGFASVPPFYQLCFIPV

[2] = target: T1, Heat shock factor protein 1; assay: inhibition of MG132-induced HSE-luciferase signal, confirmation, cell-based, NIH3T3, luminescence, dose retest (AID 2382); type: functional;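 note: NIH3T3 fibroblasts with HSF1-driven luciferase reporter stressed by proteasome inhibitor MG132; luminescence from HSF1-driven luciferase expression after 8 hours of MG132 stress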
Cytochrome P450 1A2 = target: T2, Cytochrome P450 1A2 (Homo sapiens, UniProt P05177);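 note: PubChem cytochrome P450 panel assay, CYP1A2 panel member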
T2 sequence (P05177 whole entry): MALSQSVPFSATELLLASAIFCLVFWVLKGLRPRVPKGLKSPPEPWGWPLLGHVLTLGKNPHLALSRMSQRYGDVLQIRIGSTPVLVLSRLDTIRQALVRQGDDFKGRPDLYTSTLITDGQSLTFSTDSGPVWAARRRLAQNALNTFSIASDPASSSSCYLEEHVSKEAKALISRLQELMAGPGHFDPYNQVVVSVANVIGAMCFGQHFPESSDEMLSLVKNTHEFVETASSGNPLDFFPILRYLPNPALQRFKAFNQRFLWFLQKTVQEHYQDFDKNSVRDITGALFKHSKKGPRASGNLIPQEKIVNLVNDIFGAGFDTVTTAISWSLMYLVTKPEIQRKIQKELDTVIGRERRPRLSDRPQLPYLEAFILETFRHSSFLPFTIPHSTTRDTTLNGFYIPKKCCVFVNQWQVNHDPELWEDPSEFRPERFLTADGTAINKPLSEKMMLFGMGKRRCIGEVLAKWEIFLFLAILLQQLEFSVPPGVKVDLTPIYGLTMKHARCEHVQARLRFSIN

Cytochrome P450 2C19 = Cytochrome P450 2C19 (Homo sapiens, UniProt P33261); assay: Cytochrome panel assay with activity outcomes. Panel member name: p450-cyp2c19 Compounds with AC50 equal or less than 10 uM are considered active; type: functional; settings: read-out: AC50
Sequence of Cytochrome P450 2C19 (P33261 whole entry): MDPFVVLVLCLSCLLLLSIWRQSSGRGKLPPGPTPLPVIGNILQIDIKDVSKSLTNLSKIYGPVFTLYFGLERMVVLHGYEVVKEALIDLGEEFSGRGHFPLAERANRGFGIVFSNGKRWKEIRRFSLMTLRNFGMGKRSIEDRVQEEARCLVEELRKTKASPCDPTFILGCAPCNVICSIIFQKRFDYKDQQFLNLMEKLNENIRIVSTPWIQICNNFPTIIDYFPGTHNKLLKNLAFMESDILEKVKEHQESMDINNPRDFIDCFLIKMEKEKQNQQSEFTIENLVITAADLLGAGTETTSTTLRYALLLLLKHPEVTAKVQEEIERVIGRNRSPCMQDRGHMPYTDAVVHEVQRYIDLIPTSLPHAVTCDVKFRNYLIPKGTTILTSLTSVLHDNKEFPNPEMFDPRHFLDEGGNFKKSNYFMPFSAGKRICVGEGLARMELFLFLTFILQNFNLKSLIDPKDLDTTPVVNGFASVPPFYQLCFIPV

Cytochrome P450 3A4 = Cytochrome P450 3A4 (Homo sapiens, UniProt P08684);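 note: CYP3A4 tested as one member of a cytochrome P450 panel screen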
Sequence of Cytochrome P450 3A4 (P08684 whole entry): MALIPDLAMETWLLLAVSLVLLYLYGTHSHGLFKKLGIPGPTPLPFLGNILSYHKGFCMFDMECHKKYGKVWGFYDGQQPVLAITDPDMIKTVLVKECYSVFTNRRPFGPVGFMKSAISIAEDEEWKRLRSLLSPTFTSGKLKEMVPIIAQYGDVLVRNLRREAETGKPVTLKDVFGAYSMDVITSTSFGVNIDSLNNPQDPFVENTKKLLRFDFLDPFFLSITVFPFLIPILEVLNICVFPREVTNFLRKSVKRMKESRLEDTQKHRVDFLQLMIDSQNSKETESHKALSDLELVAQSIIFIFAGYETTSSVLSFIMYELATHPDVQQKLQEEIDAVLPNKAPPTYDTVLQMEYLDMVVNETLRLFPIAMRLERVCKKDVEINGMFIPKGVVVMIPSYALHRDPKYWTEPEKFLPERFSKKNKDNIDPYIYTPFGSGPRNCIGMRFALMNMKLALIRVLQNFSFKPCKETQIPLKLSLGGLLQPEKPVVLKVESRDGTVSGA

[3] = Luminescence Cell-Based Dose Retest to Confirm Inhibitors of Cancer Stem Cells. [Related pubchem assays (depositor defined):AID2717, AID2721]; type: functional, Homo sapiens; settings: Homo sapiens
Protein skinhead-1 = target: T3, Protein skinhead-1 (Caenorhabditis elegans, UniProt P34707); type: functional
T3 sequence (P34707 whole entry): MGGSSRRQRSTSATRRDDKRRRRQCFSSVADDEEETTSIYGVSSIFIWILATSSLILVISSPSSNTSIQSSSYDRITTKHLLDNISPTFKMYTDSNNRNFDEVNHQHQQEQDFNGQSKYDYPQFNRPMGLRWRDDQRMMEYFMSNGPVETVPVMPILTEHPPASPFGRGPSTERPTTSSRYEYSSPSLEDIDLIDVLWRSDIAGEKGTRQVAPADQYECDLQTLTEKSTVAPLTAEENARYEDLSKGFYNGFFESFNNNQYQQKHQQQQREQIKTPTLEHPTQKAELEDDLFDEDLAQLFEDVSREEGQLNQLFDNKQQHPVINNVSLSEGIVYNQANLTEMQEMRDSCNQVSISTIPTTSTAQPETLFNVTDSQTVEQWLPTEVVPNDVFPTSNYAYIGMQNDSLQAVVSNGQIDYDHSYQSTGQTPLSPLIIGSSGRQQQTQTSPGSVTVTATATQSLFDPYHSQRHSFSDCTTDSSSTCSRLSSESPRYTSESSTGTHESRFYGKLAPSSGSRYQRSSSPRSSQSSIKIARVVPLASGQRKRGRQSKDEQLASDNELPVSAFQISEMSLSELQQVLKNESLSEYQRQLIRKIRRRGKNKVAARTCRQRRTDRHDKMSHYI

[4] = cytotoxicity toward NIH3T3 fibroblasts, dose response, counter-screen, cell-based, ATP luminescence, mouse fibroblasts (AID 2010); type: functional;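 note: cells exposed to compound for about 90 hours before reading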
[5] = inhibitors of intracellular T. cruzi replication, confirmation, NIH3T3 host cells, beta-gal luminescence (AID 2044); type: functional, cell-based;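 note: intracellular parasites grown in NIH/3T3 mouse fibroblasts as host cells; luminescent beta-galactosidase reporter signal from transgenic T. cruzi replicating inside host cells; inhibitors lower the luminescence signal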
[6] = HEp-2 cell cytotoxicity, dose response, cytotoxicity control for RSV inhibitor project, HTS (AID 2410); type: functional; settings: human respiratory syncytial virus

## COc1ccc(CNC(=O)Oc2ccccc2)cc1Cl
[1]
  EC50: 62.3 µM (active)

## N#Cc1cnn2c(=O)c3c([nH]c12)CCCC3
Cytochrome P450 2C9
  AC50: 11.2 µM (inconclusive)

## COc1cccc(C(=O)c2c[nH]c(C(=O)NCc3ccco3)c2)c1
[2]
  EC50: 19.9 µM (active)

## N[C@@H](Cc1cccnn1)C(=O)O
Cytochrome P450 1A2
  AC50: 3.16 µM (inconclusive)

## O=C(Cn1nc(-c2ccccc2)ccc1=O)N1CCCCC1
[2]
  EC50: > 195 µM (not active)

## Cn1c(=O)c2cn(-c3ccccc3)cc2n(C)c1=O
Cytochrome P450 2C19
  AC50: 17.8 µM (inconclusive)
Cytochrome P450 2C9
  AC50: 25.1 µM (inconclusive)

## CC(C)[C@@]1(NC(=O)[C@@H]2C[C@H]3c4cccc5[nH]cc(c45)C[C@@H]3N(C)C2)O[C@]2(O)[C@H]3CCCN3C(=O)CN2C1=O
Cytochrome P450 2C19
  AC50: 5.01 µM (inconclusive)
Cytochrome P450 2C9
  AC50: 6.31 µM (inconclusive)

## Cc1ccc(/C=N/NC(=O)Cn2nccc2C)o1
Cytochrome P450 1A2
  AC50: 15.8 µM (inconclusive)
Cytochrome P450 2C19
  AC50: 11.2 µM (inconclusive)

## C=CCn1c(S)nnc1-c1cccc2ccccc12
[2]
  EC50: > 195 µM (not active)

## CC(C)(C)NC(=O)COC(=O)c1cncc(Br)c1
Cytochrome P450 1A2
  AC50: 20 µM (inconclusive)
Cytochrome P450 3A4
  AC50: 15.8 µM (inconclusive)

## COc1ccc(CNCC(O)COc2ccc(C(C)(C)c3ccccc3)cc2)cc1 (centres undefined)
[3]
  AC50: 3.38 µM (active)
[1]
  EC50: > 260 µM (inactive)

## COc1ccccc1CNC(=O)C(C)NS(=O)(=O)c1ccc(Br)cc1 (centres undefined)
[2]
  EC50: > 195 µM (not active)

## CCCCOCCCN1CC(=O)N2[C@@H](Cc3c([nH]c4ccccc34)C2(C)C)C1=O
[1]
  EC50: > 260 µM (inactive)

## O=C(NCc1ccco1)c1ccccc1-c1ccc(C(F)(F)F)cc1
[2]
  EC50: > 195 µM (not active)

## CC(C)c1ccc(C(=O)CC2(O)C(=O)N(CN3CCOCC3)c3ccccc32)cc1 (centres undefined)
Cytochrome P450 2C9
  AC50: 12.6 µM (inconclusive)

## CCCn1nc2cc(C(=O)NCc3ccc(C)cc3)ccc2c1OC
Cytochrome P450 2C19
  AC50: 22.4 µM (inconclusive)
Cytochrome P450 2C9
  AC50: 20 µM (inconclusive)

## CCc1n[nH]c2c1C1(CCN(C(=O)OCc3ccccc3)CC1)C(C#N)=C(N)O2
[1]
  EC50: 33.9 µM (active)

## Cc1ccc(NC(=O)COc2ccc(Br)cc2CO)cc1S(=O)(=O)N1CCOCC1
Protein skinhead-1
  IC50: > 100 µM (inactive)

## COC(=O)c1ccc(S(=O)(=O)N2CCCCCC2)cc1
Protein skinhead-1
  IC50: > 100 µM (inactive)

## C/C(Cl)=C/Cc1c(C)nc2ccc(C)cc2c1O
[1]
  EC50: > 260 µM (inactive)
[4]
  EC50: > 30 µM (not active)
[5]
  EC50: 0.324 µM (active)

## Clc1ccsc1-c1ccc2ccccc2n1
Protein skinhead-1
  IC50: 16 µM (active)

## N/C(S)=N/CCC[C@@H](N)C(=O)O
Cytochrome P450 3A4
  AC50: 0.2 µM (inconclusive)
Cytochrome P450 2C9
  AC50: 15.8 µM (inconclusive)

## CN(C)c1ccc([C@@H]2N([C@H](C#N)c3ccc(N(C)C)cc3)CCCN2[C@@H](C#N)c2ccc(N(C)C)cc2)cc1
Cytochrome P450 1A2
  AC50: 5.01 µM (inconclusive)

## COc1cc(C(=O)Nc2nccs2)cc(OC)c1OC
Protein skinhead-1
  IC50: > 100 µM (inactive)

## CCOC(=O)N1CCN(C(=O)C2CCN(Cc3ccc(OC)cc3OC)CC2)CC1
[2]
  EC50: > 195 µM (not active)

## CC(C)NC(=O)C1(C)CSCC(=O)N1CCCN1CCOCC1 (centres undefined)
Protein skinhead-1
  IC50: > 100 µM (inactive)

## OC(CNC1CCCC1)COc1ccc(-c2ccccc2)cc1 (centres undefined)
Protein skinhead-1
  IC50: 45.6 µM (active)

## CSCC[C@H](NC(=O)N1CCn2c1nc1ccccc12)C(=O)NCc1ccc(F)cc1
[1]
  EC50: > 260 µM (inactive)

## CC[C@H]1C2=C3C(CC[C@H]4C(OCc5ccc(F)cc5C(F)(F)F)OC[C@](C)([C@@H]34)N(C(=O)OC(C)(C)C)C2)C(COC(C)=O)C1COC(C)=O (some centres undefined)
Cytochrome P450 3A4
  AC50: 2.51 µM (inconclusive)
Cytochrome P450 2C19
  AC50: 15.8 µM (inconclusive)
Cytochrome P450 2C9
  AC50: 31.6 µM (inconclusive)

## O=C1c2ccccc2C(O)N1c1ccccc1 (centres undefined)
[2]
  EC50: > 195 µM (not active)

## CCCCCCCCCCCCCCCC(=O)C(F)(F)F
Cytochrome P450 1A2
  AC50: 31.6 µM (inconclusive)

## COCCNC(=O)Cn1cnc2c1c(=O)n(C)c(=O)n2C
[1]
  EC50: > 260 µM (inactive)

## COc1cc(N)c(Cl)cc1C(=O)N[C@H]1CCN(CCCOc2ccc(F)cc2)C[C@@H]1OC
Cytochrome P450 1A2
  AC50: 25.1 µM (inconclusive)
Cytochrome P450 2C19
  AC50: 0.794 µM (active)
Cytochrome P450 2C9
  AC50: 1 µM (active)

## CCOC(=O)C[n+]1c(C)csc1C
[2]
  EC50: > 195 µM (not active)

## O=C(Nc1ccc(-c2cn3ccsc3n2)cc1)C1COc2ccccc2O1 (centres undefined)
Protein skinhead-1
  IC50: > 100 µM (inactive)

## CCN(CC)S(=O)(=O)c1cccc(C(=O)N[C@H](C(=O)OCC(=O)NC(=O)NC)C(C)C)c1
Cytochrome P450 3A4
  AC50: 14.1 µM (inconclusive)
Cytochrome P450 2C9
  AC50: 0.708 µM (inconclusive)

## O=C(NCCc1cccc(Cl)c1)c1cc2ccccc2oc1=O
[1]
  EC50: > 260 µM (inactive)

## C[C@@H](CN)CC(=O)O
Cytochrome P450 1A2
  AC50: 39.8 µM (inconclusive)

## Cc1nnc(SCCn2c(N3CC(C)CC(C)C3)nc3c2c(=O)n(C)c(=O)n3C)s1 (centres undefined)
Protein skinhead-1
  IC50: > 100 µM (inactive)

## CS(=O)(=O)c1ccc(NC(=O)c2ccc3c(c2)S(=O)(=O)N=C2CCCCCN23)cc1
[2]
  EC50: > 195 µM (not active)

## CC(=O)[C@]1(O)CC[C@@H]2[C@H]3C[C@@H](C)C4=CC(=O)CC[C@@]4(C)[C@H]3[C@@H](O)C[C@]21C
Cytochrome P450 3A4
  AC50: 3.98 µM (inconclusive)
Cytochrome P450 2C9
  AC50: 7.94 µM (inconclusive)

## O=C(Cn1cc([N+](=O)[O-])cn1)NCC1CCCO1 (centres undefined)
[2]
  EC50: > 195 µM (not active)

## NC(=O)Cc1ccc2c(c1)[nH]c1ccccc12
[1]
  EC50: > 260 µM (inactive)

## c1ccc2sc(-c3ccncc3)nc2c1
[6]
  CC50: 25.5 µM (active)
Protein skinhead-1
  IC50: 54.5 µM (inactive)

## COC(=O)[C@@H]1[C@@H]2C[C@H]3c4[nH]c5cc(OC)ccc5c4CCN3C[C@@H]2C[C@H](OC(=O)/C=C\c2cc(OC)c(OC)c(OC)c2)[C@H]1OC
Cytochrome P450 1A2
  AC50: 3.16 µM (inconclusive)

## O=C(CCn1nc(-c2ccc(Cl)cc2)ccc1=O)N1CCOCC1
Cytochrome P450 3A4
  AC50: 25.1 µM (inconclusive)
Cytochrome P450 2C9
  AC50: 10 µM (inconclusive)

## Cc1ccc(N2C(=O)N(CC(=O)NC(N)=O)C(=O)C2C)cc1 (centres undefined)
[2]
  EC50: > 195 µM (not active)

## COc1ccc(C2C(C(C)=O)=C(C)N=c3s/c(=C\c4cc(C)n(C)c4C)c(=O)n32)c(OC)c1 (centres undefined)
Protein skinhead-1
  IC50: > 100 µM (inactive)

## C=CCNC(=S)Nc1sc2c(c1C#N)CCCC2
[2]
  EC50: > 195 µM (not active)

## CCOC(=O)c1c[nH]nc1C(F)(F)F
[1]
  EC50: > 260 µM (inactive)

## Cc1oc2ccc(OCc3c(F)cccc3Cl)cc2c1C(=O)O
[2]
  EC50: > 195 µM (not active)

## S=C(Nc1cccc(Cl)c1)N(CCCN1CCCC1)Cc1cccn1Cc1ccc(Cl)cc1
[3]
  AC50: 6.16 µM (active)
[1]
  EC50: > 120 µM (inactive)

## CCOC(=O)CCCN
Cytochrome P450 1A2
  AC50: 6.31 µM (inconclusive)

## O[C@H](CN1CCN(c2cccc(Cl)c2)CC1)C(c1ccccc1)c1ccccc1
Cytochrome P450 1A2
  AC50: 31.6 µM (inconclusive)

## CC(C)C(=O)NCCc1nc(-c2ccccc2Cl)no1
Protein skinhead-1
  IC50: > 100 µM (inactive)

## COc1ccc(-c2cc(-c3ccccc3)[nH]n2)c(O)c1
Protein skinhead-1
  IC50: > 100 µM (inactive)
